SMILES	melting point [°C]
COc1nn(-c2ccc([N+](=O)[O-])c(F)c2)c(=O)o1	127
COc1nn(-c2ccc(NC(=O)Oc3ccccc3)c(C)c2)c(=O)o1	145
COc1nn(-c2ccc([N+](=O)[O-])c(C)c2)c(=O)o1 [Example 20, 5-Methoxy-3-(3-methyl-4-nitrophenyl)-3H-(1,3,4)oxadiazol-2-one]	112
COc1nn(-c2ccc([N+](=O)[O-])cc2C)c(=O)o1 [Example 23, 5-Methoxy-3-(2-methyl-4-nitrophenyl)-3H-(1,3,4)oxadiazol-2-one]	111
COc1nn(-c2ccc([N+](=O)[O-])c(OCc3ccc(F)cc3)c2)c(=O)o1 [Example 24, 5-Methoxy-3-(3-(4-fluorobenzyloxy)-4-nitrophenyl)-3H-(1,3,4)oxadiazol-2-one]	137
COc1nn(-c2ccc(Oc3ccc(Cl)cc3)c(N)c2)c(=O)o1 [Example 27, 5-Methoxy-3-(3-amino-4-(4-chlorophenoxy)phenyl)-3H-(1,3,4)oxadiazol-2-one]	133
COc1nn(-c2ccc(N)c(OCc3ccc(F)cc3)c2)c(=O)o1 [Example 29, 5-Methoxy-3-(4-amino-3-(4-fluorobenzyloxy)phenyl)-3H-(1,3,4)oxadiazol-2-one]	195
COc1nn(-c2ccc(NC(=O)Cc3ccc(Cl)cc3)c(C)c2)c(=O)o1 [Example 31, 5-Methoxy-3-(4-(4-chlorophenylacetylamino)-3-methylphenyl)-3H-(1,3,4)oxadiazol-2-one]	190
COc1nn(-c2ccc(NC(=O)CCCCl)c(C)c2)c(=O)o1 [Example 35, 5-Methoxy-3-(4-(4-chlorobutanoylamino)-3-methylphenyl)-3H-(1,3,4)oxadiazol-2-one]	137
COc1nn(-c2ccc(NC(=O)C(C)(C)C)c(C)c2)c(=O)o1 [Example 36, 5-Methoxy-3-(4-pivaloylamino-3-methylphenyl)-3H-(1,3,4)oxadiazol-2-one]	157
COc1nn(-c2ccc(NS(=O)(=O)CC(F)(F)F)c(C)c2)c(=O)o1 [Example 40, 5-Methoxy-3-(4-(2,2,2-trifluoroethylsulfonylamino)-3-methylphenyl)-3H-(1,3,4)oxadiazol-2-one]	151
COc1nn(-c2ccc(NS(=O)(=O)c3ccc(Cl)cc3)cc2)c(=O)o1 [Example 43, 5-Methoxy-3-(4-(4-chlorophenylsulfonylamino)phenyl)-3H-(1,3,4)oxadiazol-2-one]	169
COc1nn(-c2ccc(NS(=O)(=O)c3ccccc3Cl)cc2)c(=O)o1 [Example 44, 5-Methoxy-3-(4-(2-chlorophenylsulfonylamino)phenyl)-3H-(1,3,4)oxadiazol-2-one]	171
COc1nn(-c2ccc(NS(=O)(=O)c3cccc(Cl)c3)cc2)c(=O)o1 [Example 45, 5-Methoxy-3-(4-(3-chlorophenylsulfonylamino)phenyl)-3H-(1,3,4)oxadiazol-2-one]	141
COc1nn(-c2ccc(NC(=O)Cc3ccc(Cl)cc3)c(OCc3ccc(F)cc3)c2)c(=O)o1 [Example 46, 5-Methoxy-3-(4-(4-chlorophenylacetylamino)-3-(4-fluorobenzyloxy)phenyl)-3H-(1,3,4)oxadiazol-2-one]	167
COc1nn(-c2ccc(NS(=O)(=O)Cc3ccccc3)cc2)c(=O)o1 [Example 47, 5-Methoxy-3-(4-benzylsulfonylaminophenyl)-3H-(1,3,4)oxadiazol-2-one]	153

The next lines start with the values.

melting point [°C]	SMILES
190	COc1nn(-c2ccc(NS(=O)(=O)C(C)C)cc2)c(=O)o1 [Example 49, 5-Methoxy-3-(4-isopropylsulfonylaminophenyl)-3H-(1,3,4)oxadiazol-2-one]
71	COc1nn(-c2ccc(N(C)C)c(C)c2)c(=O)o1 [Example 50, 5-Methoxy-3-(4-dimethylamino-3-methylphenyl)-3H-(1,3,4)oxad iazol-2-one]
98	CNc1ccc(-n2nc(OC)oc2=O)cc1OCc1ccc(F)cc1 [Example 55, 5-Methoxy-3-(3-(4-fluorobenzyloxy)-4-methylaminophenyl)-3H-(1,3,4)oxadiazol-2-one]
95	COc1nn(-c2cccc(N)c2)c(=O)o1 [Example 56, 5-Methoxy-3-(3-aminophenyl)-3H-(1,3,4)oxadiazol-2-one]
71	COc1nn(-c2cccc(N(Cc3ccccc3)Cc3ccccc3)c2)c(=O)o1 [Example 57, 5-Methoxy-3-(3-dibenzylaminophenyl)-3H-(1,3,4)oxadiazol-2-one]
81	COc1nn(-c2ccc(NC(=O)Nc3ccccn3)cc2)c(=O)o1 [Example 59, 5-Methoxy-3-(4-(pyrid-2-yl)aminocarbonylaminophenyl)-3H-(1,3,4)oxadiazol-2-one]
126	COc1nn(-c2ccc(N)cc2Cl)c(=O)o1 [Example 63, 5-Methoxy-3-(4-amino-2-chlorophenyl)-3H-(1,3,4)oxadiazol-2-one]
92	COc1nn(-c2ccc([N+](=O)[O-])cc2Cl)c(=O)o1 [Example 64, 5-Methoxy-3-(2-chloro-4-nitrophenyl)-3H-(1,3,4)oxadiazol-2-one]
150	COc1nn(-c2ccc(NC(=O)c3ccc(OC(F)(F)F)cc3)cc2C)c(=O)o1 [Example 66, 5-Methoxy-3-(2-methyl-4-(4-trifluoromethoxybenzoylamino)phenyl)-3H-(1,3,4)oxadiazol-2-one]
150	COc1nn(-c2ccc(NC(=O)OCc3ccccc3)cc2Cl)c(=O)o1 [Example 67, 5-Methoxy-3-(2-chloro-4-benzyloxycarbonylaminophenyl)-3H-(1,3,4)oxadiazol-2-one]
177	COc1nn(-c2ccc(NC(=O)OCc3ccc(Cl)cc3)cc2)c(=O)o1 [Example 70, 5-Methoxy-3-(4-(4-chlorobenzyloxycarbonylamino)phenyl)-3H-(1,3,4)oxadiazol-2-one]
200	COc1nn(-c2ccc(NC(=O)c3ccc(Cl)c(Cl)c3)cc2)c(=O)o1 [Example 72, 5-Methoxy-3-(4-(3,4-dichlorobenzoylamino)phenyl)-3H-(1,3,4)oxadiazol-2-one]
153	COc1nn(-c2ccc(NC(=O)C(C)(C)Oc3ccc(Cl)cc3)cc2)c(=O)o1 [Example 73, 5-Methoxy-3-(4-(2-(4-chlorophenoxy)-2-methylpropionylamino)phenyl)-3H-(1,3,4)oxadiazol-2-one]
119	Cc1cc(-n2nc(OC(C)C)oc2=O)ccc1NC(=O)OCc1ccccc1 [Example 75, 5-isopropoxy-3-(3-methyl-4-benzyloxycarbonylaminophenyl)-3H-(1,3,4)oxadiazol-2-one]
114	CCCCOC(=O)Nc1ccc(-n2nc(OC(C)C)oc2=O)cc1C [Example 76, 5-isopropoxy-3-(3-methyl-4-butyloxycarbonylaminophenyl)-3H-(1,3,4)oxadiazol-2-one]
201	Cc1cc(-n2nc(OC(C)C)oc2=O)ccc1NC(=O)Nc1cccc(Cl)c1 [Example 77, 5-isopropoxy-3-(3-methyl-4-(3-chlorophenylaminocarbonylamino)phenyl)-3H-(1,3,4)oxadiazol-2-one]

From patent publication US6369088B2, “Substituted 3-phenyl-5-alkoxy-1,3,4-oxadiazol-2-ones, their preparation and their use as pharmaceuticals” (Aventis Pharma Deutschland GmbH, priority 2000, dated 2002)
